Measurements published in the supplement of paper PMC8443649.
± gives the standard deviation of the averaged measurements.

Tested on: PATU8988T-SmBKRAS-LgBCRAF
Experiment: KRAS:CRAF interaction luminescence (EndoBind) relative to DMSO control (fold of DMSO); higher = more KRAS-CRAF complex
Description: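 EndoBind assay: PATU8988T cells with CRISPR knock-in SmB-KRAS(G12V) and LgB-CRAF, seeded with RealTime-Glo pro-substrate (1:2000) in 384-well plates. Cells were treated with RAF inhibitors (GDC0879, LY3009120, NVP-LHS533) or the MEK inhibitor Selumetinib, and the same plate was read for split-NanoLuc luminescence at several time points. Signal is normalised to the DMSO-treated wells at each time point; n=3 wells.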

OCCn1cc(-c2ccc3c(c2)CC/C3=N\O)c(-c2ccncc2)n1 [GDC0879]
KRAS:CRAF interaction luminescence
Details | time after treatment 0 h | time after treatment 1 h | time after treatment 4 h | time after treatment 6 h | time after treatment 9 h | time after treatment 12 h
0.00375 µM | 0.967 ± 0.056 | 0.989 ± 0.093 | 0.964 ± 0.033 | 0.967 ± 0.014 | 0.958 ± 0.027 | 0.9832 ± 0.0088
0.0075 µM | 1.03 ± 0.04 | 1.03 ± 0.083 | 0.976 ± 0.026 | 0.964 ± 0.021 | 0.958 ± 0.042 | 0.982 ± 0.023
0.015 µM | 0.987 ± 0.079 | 1.03 ± 0.11 | 0.985 ± 0.04 | 0.966 ± 0.028 | 0.953 ± 0.042 | 0.969 ± 0.037
0.03 µM | 0.989 ± 0.054 | 1.1 ± 0.11 | 1.03 ± 0.027 | 1.03 ± 0.027 | 1.01 ± 0.029 | 1.01 ± 0.015
0.06 µM | 0.977 ± 0.056 | 1.22 ± 0.073 | 1.1 ± 0.034 | 1.09 ± 0.03 | 1.07 ± 0.03 | 1.08 ± 0.03
0.12 µM | 0.964 ± 0.076 | 1.27 ± 0.075 | 1.19 ± 0.055 | 1.18 ± 0.045 | 1.14 ± 0.026 | 1.16 ± 0.024
0.24 µM | 0.983 ± 0.051 | 1.4 ± 0.056 | 1.4 ± 0.043 | 1.38 ± 0.024 | 1.36 ± 0.056 | 1.36 ± 0.093
0.46875 µM | 1.01 ± 0.032 | 1.5 ± 0.11 | 1.62 ± 0.046 | 1.61 ± 0.048 | 1.58 ± 0.06 | 1.59 ± 0.07
0.9375 µM | 1.01 ± 0.051 | 1.53 ± 0.076 | 1.75 ± 0.059 | 1.81 ± 0.052 | 1.74 ± 0.063 | 1.78 ± 0.1
1.875 µM | 1.03 ± 0.028 | 1.56 ± 0.065 | 1.83 ± 0.083 | 1.92 ± 0.071 | 1.87 ± 0.11 | 1.86 ± 0.18
3.75 µM | 1.03 ± 0.031 | 1.54 ± 0.12 | 1.85 ± 0.048 | 1.93 ± 0.031 | 1.9 ± 0.046 | 1.99 ± 0.083
7.5 µM | 1.05 ± 0.046 | 1.54 ± 0.074 | 1.87 ± 0.04 | 1.98 ± 0.037 | 1.95 ± 0.059 | 2.05 ± 0.076
15 µM | 1.02 ± 0.082 | 1.46 ± 0.14 | 1.8 ± 0.029 | 1.99 ± 0.051 | 2.03 ± 0.11 | 2.15 ± 0.2
30 µM | – | – | 1.66 ± 0.063 | – | – | –
